These results are taken from patent publication US20050155087A1, “Method of screening compounds” (priority 2001, published 2005).

The subject of data set [1] is crash & burn (SQW 226) mutant zebrafish embryos. Nature of the data set: chemical suppressor screen: whole mount P-H3 immunostaining of crash & burn embryos. In kind it is in vivo, zebrafish (Danio rerio).
Data set [2] concerns wild-type zebrafish embryos. Particulars: in vivo.
Data set [3] concerns zebrafish embryos. Particulars: cited from earlier work; for apoptosis in zebrafish embryos: in vivo.
Data set [4] relates to zebrafish (wild-type and SQW mutant strains). Particulars: in vivo.
Data set [5] concerns zebrafish embryos. Kind of data set: FACS analysis of the cell cycle of cells from treated embryos. Type of data set: in vivo. Particulars: embryos treated with 10 and 100 μM 8G16. An excerpt: Flow cylometric cell sorting analysis of zebrafish embryos to identify defects in cell cycle: To analyze the DNA content of the embryos wild-type and mutant embryonic cells were subjected to DNA flow cytometric cell sorting (FACS). We have shown that the FACS analysis of DNA content can be performed on cells from a single embryo allowing analysis and comparison of mutant and wild-type cell cycle phenotypes.
Embryos were anesthetized with tricaine (3-amino benzoic acid ethylester also called ethyl m-aminobenzoate, in a powdered form from Sigma, Cat.# A-5040). Tricaine solution for anesthetizing fish was prepared by combining the following: 400 mg tricaine powder, 97.9 ml DD water, and about 2.1 ml 1 M Tris (pH 9), pH was adjusted to about 7. Before use 4.2 ml of Tricaine solution was mixed with 100 ml clean tank water.
The embryos were dechorionated as described above and resuspended in a small volume of DMEM −20% FBS in a microtube. Embryos were disaggregated and resuspend in 1-2 ml of DMEM+20% FBS. The solution was passed through 105 μm mesh, and consequently 40 μm mesh. The total volume was raised to 5 ml and the cells' in the sample was counted using hemocytometer. Volume equaling 2×10^6 cells was transferred in 15 ml conical tube and filled to a total volume of 5 ml with PBS. The sample was spinned at 1200 rpm for 10 minutes and the liquid was aspirated off. […]

Data set [6] relates to cds mutant zebrafish embryos. Nature of the data set: rescue of polyploid zebrafish mutant cds. Particulars: in vivo. The source says:
FIGS. 6A-6E show the ability of 8G16 to rescue a crash&burn (crb) zebrafish mutant (FIGS. 6B, untreated crb mutant and 6D 8G16 treated crb mutant) but not another polyploid zebrafish mutant cds (FIGS. 6C, untreated cds mutant and 6E, 8G16 treated cds mutant) compared to a wild-type, untreated embryo (FIG. 6A).

[7] abbreviates: 9-20 μM, 24 hours of development.

On to `O=C(Nc1cc(S(=O)(=O)c2ccc(Cl)cc2)ccc1Cl)c1cc(I)cc(I)c1O` [Compound 6, 3,5-Diiodo-N-[2-chloro-5-(4-chloro-benzenesulfonyl)-phenyl]-2-hydroxy-benzamide], for which the “P-H3 staining in crash and burn embryos” value in data set [1] (zebrafish, in vivo) is reported as “decrease”. Also, the “P-H3 staining in wildtype embryos” value in data set [2] is reported as “decrease”. For the compound `Cc1ccccc1OCC(=O)Nc1ccccc1C(=O)O` [Compound 9, 2-(2-o-Tolyloxy-acetylamino)-benzoic acid], in data set [1] (zebrafish, in vivo), the “P-H3 staining in crash and burn embryos” value is reported as “decrease”. Moreover, the “P-H3 staining in wildtype embryos” value in data set [2] is reported as “decrease”. Consider `Cc1cc(O)c(C(=O)C=Cc2ccc(O)cc2)c(=O)o1` [Compound 3, 4-Hydroxy-3-[3-(4-hydroxy-phenyl)-acryloyl]-6-methyl-pyran-2-one], for which the “P-H3 staining in crash and burn embryos” value in data set [1] (zebrafish, in vivo) was “decrease”. In addition, the “P-H3 staining in wildtype embryos” value in data set [2] was “decrease”. On to `COC(=O)CCC(=O)Nc1ccccc1Cl` [Compound 10, N-(2-Chloro-phenyl)-succinamic acid methyl ester], for which, in data set [2], the “P-H3 staining in wildtype embryos” value is “increase”. For the compound `COC(=O)Nc1nc2ccc(C(=O)c3cccs3)cc2[nH]1` [nocodazole], in the data set on zebrafish embryos [3] (post-MBT embryos), the “effect of treating post-MBT embryos” value was “metaphase arrest and apoptosis”. As for `Cc1c2ccccc2c(C)c2c1ccc1ccccc12` [DMBA, 7, 12 Dimethyl benzanlhracene], in data set [4], the “fish that developed tumors” value is given as 10.4%; the tumor types entry is “more brain and liver tumors”. Consider `CNc1ccc2oc(C[C@H]3O[C@@]4(CC[C@H]3C)O[C@H]([C@H](C)C(=O)c3ccc[nH]3)[C@H](C)C[C@H]4C)nc2c1C(=O)O` [A23187], for which the “fate of metaphase arrested cells” value in the data set with zebrafish embryos [3] (metaphase arrested cells) is listed as “driven into G1”. For `C[C@@]1(CO)[C@H](O)CC[C@@]2(C)[C@H]1CC[C@H]1C[C@@H]3C[C@@]12CC[C@]3(O)CO` [aphidicolin, reference compound], the “P-H3 staining in all embryos, including crash & burn” value in data set [1] (offspring of crash & burn heterozygotes raised in the presence of the chemical) is given as “decreased”. Also, the “apoptosis in zebrafish embryos” value in the data set on zebrafish embryos [3] was “cause apoplosis”.

Take `O=C(CSC1CC(=O)N(c2cccc(Cl)c2)C1=O)Nc1cccc(F)c1` (stereo not shown) [Compound 13, 2-[1-(3-Chloro-phenyl)-2,5-dioxo-pyrrolidin-3-ylsulfanyl]-N-(3-fluoro-phenyl)-acetamide]: the “P-H3 staining in wildtype embryos” value in data set [2] is listed as “increase”. In the case of `CC(=O)C1=C(C)NC(=O)NC1c1cccc(O)c1` (stereo not shown) [Compound 15, 5-Acetyl-4-(3-hydroxy-phenyl)-6-methyl-3,4-dihydro-1H-pyrimidin-2-one], the “P-H3 staining in wildtype embryos” value in data set [2] is reported as “increase”.

Consider `NC(=O)NO` [hydroxyurea], for which the “apoptosis in zebrafish embryos” value in the data set on zebrafish embryos [3] is reported as “cause apoplosis”. As for `O=C(O)c1cc([N+](=O)[O-])c(Nc2cccc3ccccc23)c([N+](=O)[O-])c1` [Compound 12, 4-(Naphthalen-1-ylamino)-3,5-dinitro-benzoic acid], the “P-H3 staining in wildtype embryos” value in data set [2] is listed as “increase”.

For `C=CCOc1c(Br)cc(S(=O)(=O)c2cc(Br)c(O)c(Br)c2)cc1Br` [Compound 2, 4-(4-Allyloxy-3,5-dibromo-benzenesulfonyl)-2,6-dibromo-phenol], the “P-H3 staining in crash and burn embryos” value in data set [1] (zebrafish, in vivo) was “decrease”. Moreover, the “P-H3 staining in wildtype embryos” value in data set [2] is recorded as “decrease”. As to `CC1=CCC2(CO)COC(c3ccccc3O)C1C2` (stereo not shown) [Compound 14, 2-(5-Hydroxymethyl-8-methyl-3-oxa-bicyclo[3.3.1]non-7-en-2-yl)-phenol], the “P-H3 staining in wildtype embryos” value in data set [2] was “increase”. On to `O=C(O)CCCC(=O)Nc1cc(C(F)(F)F)ccc1Cl` [Compound 11, 4-(2-Chloro-5-trifluoromethyl-phenylcarbamoyl)-butyric acid], for which, in data set [2], the “P-H3 staining in wildtype embryos” value is given as “increase”. As to `O=C(Nc1ncccc1O)C12CC3CC(CC(C3)C1)C2` [8G16, Adamantane-1-carboxylic acid (3-hydroxy-pyridin-2-yl)-amide], in data set [1] (10 μM 8G16, P-H3 antibody staining, genotype still crb), the “phenotypic appearance of crash & burn” value is “prevents”. Moreover, in data set [1] (setting [7]), the “P-H3 staining of treated embryos” value is “normal” and the “developmental delay of treated embryos” value is recorded as “slight developmental delay”. Further, the “crash & burn mutants detected at 24 hours of development” value in data set [1] (doses of 9, 12, 16 and 20 μM, 30-60 embryos at each dose) was “no crash & burn mutants were detected”. Moreover, in data set [1] (through 24 hours of development), the “crash and burn cell cycle phenotype” value is listed as “prevents”. Moreover, the “rescue of crash&burn (crb) zebrafish mutant” value in data set [1] (zebrafish, in vivo) was “rescue”. In addition, in data set [2], the “effect on normal embryos” value is reported as “without affecting” and the “toxicity or cell cycle affects on wild-type embryos” value is reported as “without overt toxicity or cell cycle affects”. For the same compound, the “cell cycle phase distribution” value with zebrafish embryos [5] is listed as “accumulation of cell in the G1/S phase”. Also, the “rescue of polyploid zebrafish mutant cds” value in data set [6] is recorded as “not”. With `N=c1ccccn1CC(=O)c1ccc(Cl)c(Cl)c1` [Compound 8, 1-(3,4-Dichloro-phenyl)-2-(2-imino-2H-pyridin-1-yl)-ethanone], in data set [1] (zebrafish, in vivo), the “P-H3 staining in crash and burn embryos” value is listed as “decrease”. In addition, the “P-H3 staining in wildtype embryos” value in data set [2] is “decrease”. For the compound `Nc1cc([N+](=O)[O-])ccc1NNC(=O)Nc1ccccc1` [Compound 7, 1-(2-Amino-4-nitro-phenylamino)-3-phenyl-urea], in data set [1] (zebrafish, in vivo), the “P-H3 staining in crash and burn embryos” value is “decrease”. Moreover, the “P-H3 staining in wildtype embryos” value in data set [2] is on record as “decrease”. For `CC[C@@]1(O)C(=O)OCc2c1cc1n(c2=O)Cc2cc3ccccc3nc2-1` [camptothecin], the “apoptosis in zebrafish embryos” value with zebrafish embryos [3] is “cause apoplosis”. In the case of `Cc1ccc(S(=O)(=O)Oc2ccc([N+](=O)[O-])cc2[N+](=O)[O-])cc1` [Compound 5, Toluene-4-sulfonic acid 2,4-dinitro-phenyl ester], the “P-H3 staining in crash and burn embryos” value in data set [1] (zebrafish, in vivo) is on record as “decrease”. Also, in data set [2], the “P-H3 staining in wildtype embryos” value was “decrease”. In the case of `O=C(c1ccccc1)C1C(=O)C2C=CC=CC2C1=O` (stereo not shown) [Compound 4, 2-Benzoyl-3a,7a-dihydro-indene-1,3-dione], the “P-H3 staining in crash and burn embryos” value in data set [1] (zebrafish, in vivo) is “decrease”. For the same compound, the “P-H3 staining in wildtype embryos” value in data set [2] is listed as “decrease”.
